# Source: patent publication US20030199699A1, “3-(4,5-Dihydroisoxaxol-5-yl)benzoylcyclohexenones and the use thereof as herbicides” (priority 2000, published 2003)
# What was measured:
# black nightshade = experiment: greenhouse herbicidal test, pre-emergence; format: in vivo, Solanum nigrum; settings: 125 or 62.5 g/ha
# Description: (§1) The culture containers used were plastic flower pots containing loamy sand with approximately 3.0% of humus as substrate. The seeds of the test plant were sown separately for each species.
# (§2) For the pre-emergence treatment, the active ingredients, which were suspended or emulsified in water, were applied directly after sowing by means of finely distributing nozzles. The containers were irrigated gently to promote germination and growth and subsequently covered with transparent plastic hoods until the plants had rooted. This cover caused uniform germination of the test plants unless this was adversely affected by the active ingredients.
# (§3) Depending on the species, the plants were kept at temperatures of from 10 to 25° C. or from 20 to 35° C. The test period extended over 2 to 4 weeks. During this time, the plants were tended, and their response to the individual treatments was evaluated.
# (§4) Evaluation was carried out using a scale of from 0 to 100. 100 means no emergence of the plants, or complete destruction of at least the aerial parts, and 0 means no damage or normal course of growth.
# (§5) The plants used in the greenhouse experiments belonged to the following species: […]
# lambsquarters = experiment: greenhouse herbicidal test, pre-emergence; format: in vivo, Chenopodium album; settings: 125 or 62.5 g/ha
# Description: as §1, §2, §3, §4, §5
# hairy fingergrass = experiment: greenhouse herbicidal test, pre-emergence; format: in vivo, Digitaria sanguinalis; settings: 125 or 62.5 g/ha
# Description: as §1, §2, §3, §4, §5
# redroot pigweed = experiment: greenhouse herbicidal test, pre-emergence; format: in vivo, Amaranthus retroflexus; settings: 125 or 62.5 g/ha
# Description: as §1, §2, §3, §4, §5
compound,measurement,setting,value
"CC1=NOC(c2c(S(C)(=O)=O)ccc(C(=O)C3=C(O)CCCC3=O)c2C)C1 (centres unmarked) [Compound 2.5, 2-[2-Methyl-3-(3-methyl-4,5-dihydroisoxazol-5-yl)-4-methylsulfonylbenzoyl]-1-hydroxycyclohex-1-en-3-one]",herbicidal action against black nightshade,black nightshade,highly efficiently
same,melting point,,135 to 140 °C
same,herbicidal action against lambsquarters,lambsquarters,highly efficiently
same,herbicidal action against hairy fingergrass,hairy fingergrass,highly efficiently
same,herbicidal action against redroot pigweed,redroot pigweed,highly efficiently
